Test results from article PMC12635197, “Discovery of first-in-class inhibitors of the TRF1:TIN2 protein:protein interaction by fragment screening” (Scientific Reports, 2025).
Values belong to the molecule of their own block, whether it stands above or below them.

How the values were obtained:
TRF1TRFH [1] = target: T1, TRF1TRFH (Homo sapiens, UniProt P54274); assay: LO-NMR CPMG assay (relaxation-edited), singletons; assay type: binding; details: single experiment
T1 construct: encoding residues 47–268, UniProt identifier P54274-1; His6-MBP (TEV-cleavable) (N, cleaved yes); made in house; host or cells: E. coli BL21-CodonPlus(DE3)-RIL
T1 sequence (P54274 47-268): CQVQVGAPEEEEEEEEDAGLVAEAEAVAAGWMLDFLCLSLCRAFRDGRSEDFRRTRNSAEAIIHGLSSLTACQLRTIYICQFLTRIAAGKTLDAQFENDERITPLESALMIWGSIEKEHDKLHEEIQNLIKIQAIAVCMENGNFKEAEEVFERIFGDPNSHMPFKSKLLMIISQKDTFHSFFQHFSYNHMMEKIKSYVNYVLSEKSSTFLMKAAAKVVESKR
Description: We next used a LO-NMR CPMG assay to orthogonally validate XChem hits in solution, aiming to eliminate false positives and rank hit matter for follow-up studies. Compounds were tested as singletons and prepared in two samples containing either compound alone (sample 1) or compound + TRF1TRFH (sample 2).
The fragment screen by LO-NMR was carried out using conditions described previously, with some modifications. Fragments were dispensed in triplicate into a 384-well plate using an Echo 550 liquid handler to give a final ligand concentration of 250 µM (total sample volume of 40 µL). 40 µL of TRF1TRFH protein (in NMR buffer; 20 µM final protein concentration in the assay) were added to the ‘protein’ samples; 40 µL of TRF1TRFH protein and TIN2TBM peptide (21-mer, Ac-[…]-CONH2; 40 µM final concentration in the assay) were both added to the ‘competitor’ samples; 40 µL NMR buffer were added to the ‘compound-only’ samples. Solutions were transferred to 1.7-mm NMR tubes using a Bruker SamplePro Tube robotics system. ^1H NMR spectra were recorded on a Bruker AVIII 500 MHz spectrometer at 298 K, equipped with a 1.7-mm TXI probe, with samples in 1.7-mm SampleJET NMR tubes (Bruker). DMSO and water signals were dampened. A relaxation spin filter was applied at 400 ms. Data were processed using Bruker Topspin 4.0. Lines were broadened with LB = 3.0, and the baseline was corrected between 6.0 and 10.0 ppm.
The data were then analysed using the MNova Screen software. Only peaks between 5.5 and 9.5 ppm were considered. Peaks with a height of < 5% maximum peak height within the region of interest were considered noise, and the minimum matched peak level was set at > 51%. The relative peak intensity change (I) was calculated for all peaks in the 5.5–9.5 ppm region, for each compound, as described previously. The average integral for all peaks between 6.0 and 10.0 ppm was calculated, and the differences between compound-only, compound-plus-protein, and compound-plus-protein-plus-competitor samples were compared. The net recovery was calculated by subtracting the reduction in peak integral of the compound-plus-protein samples from the compound-plus-protein-plus-competitor samples.
For hit validation, relaxation-edited LO-NMR experiments were repeated as described above on single compounds instead of fragment cocktails.

[2] = Fragment solubility assay (quantitative 1H NMR); assay type: physicochemical; details: Supplementary Table 1
Description: Aqueous solubility test samples were prepared by adding 3.6 µL compound (50 mM stock in 100% DMSO-d6) to 176.4 µL NMR buffer in a microcentrifuge tube. The samples were incubated overnight and transferred to a 3-mm NMR tube (Bruker, Part No. Z112272). ^1H NMR spectra were recorded, with the DMSO and water signals dampened. 1 mM caffeine (Sigma, C1778 in PBS (pH 7.4) with 1% DMSO-d6) was used as a standard to quantify the ligand signals and determine the concentration of samples.
NMR data were collected on a Bruker Avance Neo 600-MHz spectrometer equipped with a 5 mm TCI-CryoProbe. The ^1H spectrum was referenced to the internal deuterated solvent. The operating frequency for ^1H was 600 MHz. All NMR data were acquired at the temperature of 298 K. All data were acquired and processed using Bruker Topspin 4.0. The quantitative ^1H-NMR spectrum was acquired using a Bruker standard 1D lc1pngppsf2 pulse sequence with 32 scans. The sweep width was 6.2 ppm with O1P set to 8.8 ppm, and the FID contained 16k time-domain data points. Relaxation delay was set to 20 s. Water signal was suppressed.

TRF1TRFH [3] = target: T1, TRF1TRFH; assay: Crystal soaking of TRF1TRFH crystals; details: soaking into TRF1TRFH crystals; Supplementary Table 1
Description: Attempts to soak TRF1TRFH crystals with the commercially available analogues of the XChem hit 5 were also unsuccessful. Only one slightly smaller analogue (22) could be soaked into TRF1TRFH crystals, albeit with an ambiguous binding mode. […] In the case of compound 5, we observed a hydrogen bond between the amino group of the fragment and a backbone carbonyl in the neighbouring protein chain (Fig. 2i). […] Additionally, the pocket normally occupied by the conserved phenylalanine residue of the TIN2 F-X-L-X-P motif was fully obstructed by a crystal contact with a TRF1TRFH copy in an adjacent asymmetric unit, further limiting the possibility of obtaining XChem hits outside of the leucine pocket.
TRF1TRFH crystals in the P3_121 space group were grown by sitting drop vapour diffusion in SWISSCI 3-drop plates using similar crystallisation conditions to those described previously. The total drop volume was 300 nL, consisting of 150 nL of TRF1TRFH (31.2 mg/mL) and 150 nL of reservoir solution (1% PEG8000, 100 mM MES pH 6.0, 1–12 mM Mg(OAc)2, 10–15% glycerol), whilst the reservoir volume was 35 µL. Crystallisation plates were set up using an SPT Labtech mosquito Xtal2 liquid handler. Cuboid-shaped crystals grew to their maximum size (300 μm across) within 24 h. Crystals were cryoprotected through the addition of 180 nL of 40% glycerol to the crystal drop prior to harvesting, giving a final glycerol concentration of […] (accounting for the glycerol already in the crystallisation conditions). The crystals were then flash-frozen in liquid nitrogen, and data were collected at the Diamond Light Source beamlines I04 and I04-1 and processed automatically using the Xia2 Dials pipeline[53],[54]. The TRF1TRFH structure was solved by molecular replacement in Phaser MR[55] within CCP4[56] using the previously published TRF1TRFH structure as a search model (PDB: 1H6O)[31], after having first stripped the search model of solvent molecules and ligands. Structure refinement was done using Refmac[57] and Buster[36], and model correction and building was done using Coot 0.9.6[35].
The DSi-Poised library (768 fragment, Enamine)[32], the EUbOPEN DSiP extension library (108 fragments) and the FragLite library (31 fragments)[33] were screened against TRF1TRFH crystals. Compounds at 500 mM in DMSO stocks were dispensed into selected crystal drops as singletons using an Echo 550 liquid handler to give a final concentration of 50 mM (10% DMSO final concentration). After incubation for 1 h at 20 °C, 180 nL of glycerol (40% stock, final drop concentration 28.8–32.5%) were added to each drop immediately prior to crystal harvesting and flash-freezing in liquid nitrogen.
Data were collected on the I04-1 beamline at Diamond Light Source. […]

[4] = target: T2, (StrepII)2-TEV-tagged TIN2, subunit of recombinant shelterin (UniProt Q9BSI4-1 1-451); assay: mass photometry; SEC-purified shelterin without compound; complex of around 700 kDa; 50 mM HEPES-NaOH pH 8.0, 300 mM NaCl; details: both partners purified
T2 construct: TIN2, gene NM_001099274.1, codon-optimised; a TEV site lies between tag and protein; The separately made control protein is called TIN2L; The discussion says that the complex carries a short peptidic tag on TIN2; source: Sf9, co-expressed with the other shelterin subunits (MultiBac baculovirus), purified (StrepTrap, serial SEC)
T2 sequence (looked up): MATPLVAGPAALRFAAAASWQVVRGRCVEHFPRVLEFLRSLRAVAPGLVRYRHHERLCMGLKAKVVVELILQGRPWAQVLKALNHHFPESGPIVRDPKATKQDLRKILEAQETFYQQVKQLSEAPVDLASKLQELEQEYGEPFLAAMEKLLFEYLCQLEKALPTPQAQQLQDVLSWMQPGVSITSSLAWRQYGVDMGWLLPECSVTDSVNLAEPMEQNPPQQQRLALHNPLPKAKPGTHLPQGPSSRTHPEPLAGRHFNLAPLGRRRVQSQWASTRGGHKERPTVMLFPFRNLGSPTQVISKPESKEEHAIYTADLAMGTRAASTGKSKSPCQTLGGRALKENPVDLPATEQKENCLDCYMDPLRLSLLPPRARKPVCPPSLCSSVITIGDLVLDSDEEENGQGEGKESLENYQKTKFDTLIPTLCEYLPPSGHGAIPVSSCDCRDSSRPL

CPMG reduction (TRF1TRFH [1]; average peak intensity reduction on addition of TRF1TRFH, 250 µM ligand, 20 µM protein): 25%
CPMG recovery (TRF1TRFH [1]; net recovery of peak intensity on addition of TIN2TBM peptide (40 µM) to compound plus protein): 0%
Aq. Sol. [2]: 580 µM
Crystal structure (TRF1TRFH [3]): Yes
Molecule: COc1ccc2sc(N)nc2c1 [Compound 20]

stoichiometry N [4]: 1 TPP1 per TIN2
B1: TPP1, subunit of recombinant shelterin (natural protein, UniProt Q96AP0 1-458, looked up)
chain: MAGSGRLVLRPWIRELILGSETPSSPRAGQLLEVLQDAEAAVAGPSHAPDTSDVGATLLVSDGTHSVRCLVTREALDTSDWEEKEFGFRGTEGRLLLLQDCGVHVQVAEGGAPAEFYLQVDRFSLLPTEQPRLRVPGCNQDLDVQKKLYDCLEEHLSESTSSNAGLSLSQLLDEMREDQEHQGALVCLAESCLTLEGPCTAPPVTHWAASRCKATGEAVYTVPSSMLCISENDQLILSSLGPCQRTQGPELPPPDPALQDLSLTLIASPPSSPSSSGTPALPGHMSSEESGTSISLLPALSLAAPDPGQRSSSQPSPAICSAPATLTPRSPHASRTPSSPLQSCTPSLSPRSHVPSPHQALVTRPQKPSLEFKEFVGLPCKNRPPFPRTGATRGAQEPCSVWEPPKRHRDGSAFQYEYEPPCTSLCARVQAVRLPPQLMAWALHFLMDAQPGSEPTPM
notes: TPP1 (shelterin subunit), gene BC016904.1, codon-optimised

stoichiometry N [4]: 4 TRF2 per TIN2
B2: TRF2 (telomeric repeat-binding factor 2), subunit of recombinant shelterin (natural protein, UniProt Q15554-3 1-542, looked up)
chain: MAAGAGTAGPASGPGVVRDPAASQPRKRPGREGGEGARRSDTMAGGGGSSDGSGRAAGRRASRSSGRARRGRHEPGLGGPAERGAGEARLEEAVNRWVLKFYFHEALRAFRGSRYGDFRQIRDIMQALLVRPLGKEHTVSRLLRVMQCLSRIEEGENLDCSFDMEAELTPLESAINVLEMIKTEFTLTEAVVESSRKLVKEAAVIICIKNKEFEKASKILKKHMSKDPTTQKLRNDLLNIIREKNLAHPVIQNFSYETFQQKMLRFLESHLDDAEPYLLTMAKKALKSESAASSTGKEDKQPAPGPVEKPPREPARQLRNPPTTIGMMTLKAAFKTLSGAQDSEAAFAKLDQKDLVLPTQALPASPALKNKRPRKDENESSAPADGEGGSELQPKNKRMTISRLVLEEDSQSTEPSAGLNSSQEAASAPPSKPTVLNQPLPGEKNPKVPKGKWNSSNGVEEKETWVEEDELFQVQAAPDEDSTTNITKKQKWTVEESEWVKAGVQKYGEGNWAAISKNYPFVNRTAVMIKDRWRTMKRLGMN
notes: TRF2, gene NM_005652.4, codon-optimised

stoichiometry N [4]: 1 POT1 per TIN2
B3: POT1, subunit of recombinant shelterin (natural protein, UniProt Q9NUX5-1 1-634, looked up)
chain: MSLVPATNYIYTPLNQLKGGTIVNVYGVVKFFKPPYLSKGTDYCSVVTIVDQTNVKLTCLLFSGNYEALPIIYKNGDIVRFHRLKIQVYKKETQGITSSGFASLTFEGTLGAPIIPRTSSKYFNFTTEDHKMVEALRVWASTHMSPSWTLLKLCDVQPMQYFDLTCQLLGKAEVDGASFLLKVWDGTRTPFPSWRVLIQDLVLEGDLSHIHRLQNLTIDILVYDNHVHVARSLKVGSFLRIYSLHTKLQSMNSENQTMLSLEFHLHGGTSYGRGIRVLPESNSDVDQLKKDLESANLTANQHSDVICQSEPDDSFPSSGSVSLYEVERCQQLSATILTDHQYLERTPLCAILKQKAPQQYRIRAKLRSYKPRRLFQSVKLHCPKCHLLQEVPHEGDLDIIFQDGATKTPDVKLQNTSLYDSKIWTTKNQKGRKVAVHFVKNNGILPLSNECLLLIEGGTLSEICKLSNKFNSVIPVRSGHEDLELLDLSAPFLIQGTIHHYGCKQCSSLRSIQNLNSLVDKTSWIPSSVAEALGIVPLQYVFVMTFTLDDGTGVLEAYLMDSDKFFQIPASEVLMDDDLQKSVDMIMDMFCPPGIKIDAYPWLECFIKSYNVTNGTDNQICYQIFDTTVAEDVI
notes: POT1 (shelterin subunit), gene NM_015450, codon-optimised

stoichiometry N [4]: 4 RAP1 per TIN2
B4: RAP1, subunit of recombinant shelterin (natural protein, UniProt Q9NYB0 1-399, looked up)
chain: MAEAMDLGKDPNGPTHSSTLFVRDDGSSMSFYVRPSPAKRRLSTLILHGGGTVCRVQEPGAVLLAQPGEALAEASGDFISTQYILDCVERNERLELEAYRLGPASAADTGSEAKPGALAEGAAEPEPQRHAGRIAFTDADDVAILTYVKENARSPSSVTGNALWKAMEKSSLTQHSWQSLKDRYLKHLRGQEHKYLLGDAPVSPSSQKLKRKAEEDPEAADSGEPQNKRTPDLPEEEYVKEEIQENEEAVKKMLVEATREFEEVVVDESPPDFEIHITMCDDDPPTPEEDSETQPDEEEEEEEEKVSQPEVGAAIKIIRQLMEKFNLDLSTVTQAFLKNSGELEATSAFLASGQRADGYPIWSRQDDIDLQKDDEDTREALVKKFGAQNVARRIEFRKK
notes: RAP1 (TRF2-associated shelterin subunit), gene NM_018975.3, codon-optimised
